Read-outs that look alike come from different tables or passages of the source.
Tests used:
Assay type in all cases: biochemical
[1] = target: 320 wild-type protein kinases (Homo sapiens, UniProt Q96RR4); settings: singlicate
From the text: (§1) Table S4. Profiling of two compounds at two concentrations against 320 wild-type protein kinases; singlicate measurement; Residual activities (% of control).

[2] = target: T1, 320 wild-type protein kinases (Homo sapiens, UniProt Q16566); settings: singlicate
T1 sequence (Q16566 1-473): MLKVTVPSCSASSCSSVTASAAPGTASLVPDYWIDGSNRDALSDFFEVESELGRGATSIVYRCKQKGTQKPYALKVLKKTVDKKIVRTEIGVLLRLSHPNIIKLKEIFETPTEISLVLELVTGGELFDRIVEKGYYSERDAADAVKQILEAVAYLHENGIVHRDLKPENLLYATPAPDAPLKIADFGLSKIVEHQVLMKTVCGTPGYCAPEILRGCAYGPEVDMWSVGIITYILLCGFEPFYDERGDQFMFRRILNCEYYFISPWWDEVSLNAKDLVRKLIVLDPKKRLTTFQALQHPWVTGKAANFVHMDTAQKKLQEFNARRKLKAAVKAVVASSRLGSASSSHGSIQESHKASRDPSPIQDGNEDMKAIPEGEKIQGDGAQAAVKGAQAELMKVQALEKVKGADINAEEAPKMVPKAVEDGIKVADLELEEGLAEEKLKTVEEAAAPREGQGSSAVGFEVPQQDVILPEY
From the text: as §1

[3] = target: 320 wild-type protein kinases (Homo sapiens, UniProt Q9HAZ1); settings: singlicate
From the text: as §1

[4] = target: T2, 320 wild-type protein kinases (Homo sapiens, UniProt P51955); settings: singlicate
T2 sequence (P51955 1-445): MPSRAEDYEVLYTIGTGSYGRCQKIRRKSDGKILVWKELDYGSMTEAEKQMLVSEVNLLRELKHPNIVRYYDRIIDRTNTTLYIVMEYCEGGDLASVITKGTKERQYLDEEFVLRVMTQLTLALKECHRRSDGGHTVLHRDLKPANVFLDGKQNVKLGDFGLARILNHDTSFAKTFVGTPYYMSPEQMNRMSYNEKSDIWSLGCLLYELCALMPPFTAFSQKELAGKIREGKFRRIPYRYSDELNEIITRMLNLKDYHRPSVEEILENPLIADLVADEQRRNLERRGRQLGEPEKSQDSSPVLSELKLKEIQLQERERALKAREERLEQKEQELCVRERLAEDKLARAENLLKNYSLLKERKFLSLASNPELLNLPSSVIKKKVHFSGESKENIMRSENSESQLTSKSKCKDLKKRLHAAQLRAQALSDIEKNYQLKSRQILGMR
From the text: as §1

[5] = target: T3, 320 wild-type protein kinases (Homo sapiens, UniProt P36896); settings: ACV-R1B, singlicate
T3 sequence (P36896 24-505): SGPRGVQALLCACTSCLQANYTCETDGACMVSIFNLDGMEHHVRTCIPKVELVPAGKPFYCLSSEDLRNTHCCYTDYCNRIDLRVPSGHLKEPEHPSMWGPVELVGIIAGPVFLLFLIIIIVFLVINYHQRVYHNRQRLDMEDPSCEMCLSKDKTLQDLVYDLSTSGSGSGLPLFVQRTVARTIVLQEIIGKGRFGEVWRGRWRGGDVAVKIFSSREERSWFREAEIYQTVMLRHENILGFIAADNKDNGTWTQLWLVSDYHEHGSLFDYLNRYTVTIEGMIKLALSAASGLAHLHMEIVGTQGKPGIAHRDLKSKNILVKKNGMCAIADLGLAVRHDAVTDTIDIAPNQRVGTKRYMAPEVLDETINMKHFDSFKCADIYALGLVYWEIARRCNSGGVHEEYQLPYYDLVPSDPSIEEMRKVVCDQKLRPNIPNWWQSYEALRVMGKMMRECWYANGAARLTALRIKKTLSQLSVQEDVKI
From the text: as §1

[6] = target: 320 wild-type protein kinases (Homo sapiens, UniProt Q9P286); settings: singlicate
From the text: as §1

[7] = target: 320 wild-type protein kinases (Homo sapiens, UniProt P19784); settings: singlicate
From the text: as §1

[8] = target: 320 wild-type protein kinases (Homo sapiens, UniProt Q86UE8); settings: kinase TLK2, singlicate
From the text: as §1

[9] = target: T4, 320 wild-type protein kinases (Homo sapiens, UniProt P51956); settings: singlicate
T4 sequence (P51956 1-506): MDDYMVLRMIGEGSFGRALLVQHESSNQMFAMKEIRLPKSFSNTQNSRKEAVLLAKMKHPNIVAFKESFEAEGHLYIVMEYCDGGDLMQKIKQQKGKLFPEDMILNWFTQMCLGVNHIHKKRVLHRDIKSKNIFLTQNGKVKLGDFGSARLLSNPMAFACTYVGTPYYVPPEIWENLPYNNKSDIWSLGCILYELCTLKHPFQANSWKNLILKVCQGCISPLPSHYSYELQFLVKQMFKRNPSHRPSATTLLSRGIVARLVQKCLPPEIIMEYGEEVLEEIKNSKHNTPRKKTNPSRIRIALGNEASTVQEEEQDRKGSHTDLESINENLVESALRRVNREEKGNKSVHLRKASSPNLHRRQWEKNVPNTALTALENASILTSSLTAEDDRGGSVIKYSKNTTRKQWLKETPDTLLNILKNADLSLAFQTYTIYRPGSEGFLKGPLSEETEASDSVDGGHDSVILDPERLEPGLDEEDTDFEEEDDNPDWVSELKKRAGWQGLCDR
From the text: as §1

[10] = target: 320 wild-type protein kinases (Homo sapiens, UniProt P54764); settings: singlicate
From the text: as §1

[11] = target: 320 wild-type protein kinases (Homo sapiens, UniProt Q16513); settings: singlicate
From the text: as §1

[12] = target: 320 wild-type protein kinases (Homo sapiens, UniProt Q04912); settings: kinase RON, singlicate
From the text: as §1

Sequence of 320 wild-type protein kinases (Homo sapiens, UniProt Q96RR4) (Q96RR4 whole entry): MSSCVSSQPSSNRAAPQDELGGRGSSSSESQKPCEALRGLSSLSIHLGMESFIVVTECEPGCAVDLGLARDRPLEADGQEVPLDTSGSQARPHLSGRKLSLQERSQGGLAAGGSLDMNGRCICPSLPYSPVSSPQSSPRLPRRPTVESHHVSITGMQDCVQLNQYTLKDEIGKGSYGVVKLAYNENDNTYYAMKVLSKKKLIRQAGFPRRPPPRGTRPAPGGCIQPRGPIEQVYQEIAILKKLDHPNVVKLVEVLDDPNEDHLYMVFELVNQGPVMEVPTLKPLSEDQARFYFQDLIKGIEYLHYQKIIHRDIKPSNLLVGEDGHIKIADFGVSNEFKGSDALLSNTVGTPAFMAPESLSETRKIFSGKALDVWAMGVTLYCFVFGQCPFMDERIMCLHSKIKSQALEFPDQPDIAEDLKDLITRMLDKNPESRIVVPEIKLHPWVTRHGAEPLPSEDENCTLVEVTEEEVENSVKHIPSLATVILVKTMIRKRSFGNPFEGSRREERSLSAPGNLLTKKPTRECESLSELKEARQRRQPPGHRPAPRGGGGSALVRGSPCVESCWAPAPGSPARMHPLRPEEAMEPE
Sequence of 320 wild-type protein kinases (Homo sapiens, UniProt Q16513) (Q16513 whole entry): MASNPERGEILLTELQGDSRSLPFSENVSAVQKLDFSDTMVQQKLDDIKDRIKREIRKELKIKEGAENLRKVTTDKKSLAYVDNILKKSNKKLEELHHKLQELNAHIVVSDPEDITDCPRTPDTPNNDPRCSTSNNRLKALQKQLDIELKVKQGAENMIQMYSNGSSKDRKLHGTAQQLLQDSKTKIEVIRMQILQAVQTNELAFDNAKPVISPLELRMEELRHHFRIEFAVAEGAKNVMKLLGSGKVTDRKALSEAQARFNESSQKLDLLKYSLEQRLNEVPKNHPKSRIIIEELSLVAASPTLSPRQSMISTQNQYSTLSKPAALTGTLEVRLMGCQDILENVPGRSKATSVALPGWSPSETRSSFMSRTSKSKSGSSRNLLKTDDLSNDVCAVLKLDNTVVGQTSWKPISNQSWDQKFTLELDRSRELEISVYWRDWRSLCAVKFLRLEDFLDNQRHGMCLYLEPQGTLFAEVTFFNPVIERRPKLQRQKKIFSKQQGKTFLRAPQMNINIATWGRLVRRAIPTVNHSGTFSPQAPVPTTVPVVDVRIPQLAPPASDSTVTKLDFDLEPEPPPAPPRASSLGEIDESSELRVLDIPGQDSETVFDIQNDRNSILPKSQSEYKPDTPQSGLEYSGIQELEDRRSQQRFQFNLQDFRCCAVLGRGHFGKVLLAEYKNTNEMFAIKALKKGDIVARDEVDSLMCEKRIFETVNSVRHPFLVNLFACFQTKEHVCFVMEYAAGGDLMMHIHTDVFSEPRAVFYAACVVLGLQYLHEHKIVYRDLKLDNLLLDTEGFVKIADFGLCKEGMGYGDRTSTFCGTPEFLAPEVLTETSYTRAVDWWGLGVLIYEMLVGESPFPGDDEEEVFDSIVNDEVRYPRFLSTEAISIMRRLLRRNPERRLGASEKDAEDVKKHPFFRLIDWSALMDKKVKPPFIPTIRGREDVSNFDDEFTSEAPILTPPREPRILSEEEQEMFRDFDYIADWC
Sequence of 320 wild-type protein kinases (Homo sapiens, UniProt P54764) (P54764 20-986): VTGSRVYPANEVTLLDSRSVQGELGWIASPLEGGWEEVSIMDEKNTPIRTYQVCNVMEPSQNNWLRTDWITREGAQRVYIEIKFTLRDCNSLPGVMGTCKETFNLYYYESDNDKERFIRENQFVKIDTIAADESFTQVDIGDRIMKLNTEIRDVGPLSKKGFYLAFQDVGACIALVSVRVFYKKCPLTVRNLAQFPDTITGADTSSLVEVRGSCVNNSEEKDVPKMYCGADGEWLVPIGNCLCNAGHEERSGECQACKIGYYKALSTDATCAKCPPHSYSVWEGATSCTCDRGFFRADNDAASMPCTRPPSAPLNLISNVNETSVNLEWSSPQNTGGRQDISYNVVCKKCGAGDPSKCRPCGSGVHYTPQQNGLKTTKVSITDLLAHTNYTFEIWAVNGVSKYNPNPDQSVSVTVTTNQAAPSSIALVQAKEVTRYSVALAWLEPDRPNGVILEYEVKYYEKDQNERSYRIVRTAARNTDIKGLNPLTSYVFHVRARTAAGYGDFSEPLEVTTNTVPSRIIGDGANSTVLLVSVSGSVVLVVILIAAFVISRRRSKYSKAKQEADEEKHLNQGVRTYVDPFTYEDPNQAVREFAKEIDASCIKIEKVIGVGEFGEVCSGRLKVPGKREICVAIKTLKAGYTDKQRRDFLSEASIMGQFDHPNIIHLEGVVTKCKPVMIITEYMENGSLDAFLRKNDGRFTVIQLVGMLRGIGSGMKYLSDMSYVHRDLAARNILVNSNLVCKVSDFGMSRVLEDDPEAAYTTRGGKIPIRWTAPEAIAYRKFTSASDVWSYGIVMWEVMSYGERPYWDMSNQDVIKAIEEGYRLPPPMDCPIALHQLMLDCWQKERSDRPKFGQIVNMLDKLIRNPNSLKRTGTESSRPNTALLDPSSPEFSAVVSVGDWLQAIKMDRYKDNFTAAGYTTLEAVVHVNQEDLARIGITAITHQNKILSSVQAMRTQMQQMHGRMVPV
Sequence of 320 wild-type protein kinases (Homo sapiens, UniProt Q04912) (Q04912 25-1400): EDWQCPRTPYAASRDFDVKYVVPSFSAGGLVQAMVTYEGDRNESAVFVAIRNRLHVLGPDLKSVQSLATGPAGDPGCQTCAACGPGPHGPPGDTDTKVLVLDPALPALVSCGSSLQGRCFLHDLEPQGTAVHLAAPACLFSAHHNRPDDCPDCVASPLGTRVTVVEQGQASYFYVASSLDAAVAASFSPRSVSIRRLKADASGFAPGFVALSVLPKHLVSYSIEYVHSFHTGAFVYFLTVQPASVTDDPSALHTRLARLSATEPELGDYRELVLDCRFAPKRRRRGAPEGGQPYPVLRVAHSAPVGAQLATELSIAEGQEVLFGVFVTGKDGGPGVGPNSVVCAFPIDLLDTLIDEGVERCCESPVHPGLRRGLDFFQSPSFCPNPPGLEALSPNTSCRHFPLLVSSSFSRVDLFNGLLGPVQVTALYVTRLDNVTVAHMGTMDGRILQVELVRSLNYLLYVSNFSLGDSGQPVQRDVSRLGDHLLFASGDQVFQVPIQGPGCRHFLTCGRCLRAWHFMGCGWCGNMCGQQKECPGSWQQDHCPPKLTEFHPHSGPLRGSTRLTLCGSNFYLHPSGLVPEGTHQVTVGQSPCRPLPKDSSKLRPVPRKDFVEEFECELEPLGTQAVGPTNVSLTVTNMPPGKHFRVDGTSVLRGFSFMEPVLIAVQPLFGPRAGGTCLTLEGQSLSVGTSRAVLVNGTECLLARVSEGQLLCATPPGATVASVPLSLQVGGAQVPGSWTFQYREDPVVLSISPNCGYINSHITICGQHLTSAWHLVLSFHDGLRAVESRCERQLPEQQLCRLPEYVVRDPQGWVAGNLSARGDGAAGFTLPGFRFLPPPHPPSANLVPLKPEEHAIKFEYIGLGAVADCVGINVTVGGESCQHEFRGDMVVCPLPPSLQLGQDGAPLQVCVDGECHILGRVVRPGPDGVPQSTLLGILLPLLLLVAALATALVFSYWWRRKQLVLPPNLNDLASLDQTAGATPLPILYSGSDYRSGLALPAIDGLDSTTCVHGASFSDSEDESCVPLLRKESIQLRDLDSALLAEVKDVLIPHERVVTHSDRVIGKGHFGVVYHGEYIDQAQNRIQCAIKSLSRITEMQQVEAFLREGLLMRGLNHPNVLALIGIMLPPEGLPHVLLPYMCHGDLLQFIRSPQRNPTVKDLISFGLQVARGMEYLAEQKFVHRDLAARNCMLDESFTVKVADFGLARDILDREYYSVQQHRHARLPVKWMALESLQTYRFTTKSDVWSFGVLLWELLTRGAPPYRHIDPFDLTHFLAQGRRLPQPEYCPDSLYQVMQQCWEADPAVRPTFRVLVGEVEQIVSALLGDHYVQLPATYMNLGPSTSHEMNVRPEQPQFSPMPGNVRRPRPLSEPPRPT
Sequence of 320 wild-type protein kinases (Homo sapiens, UniProt Q9P286) (Q9P286 whole entry): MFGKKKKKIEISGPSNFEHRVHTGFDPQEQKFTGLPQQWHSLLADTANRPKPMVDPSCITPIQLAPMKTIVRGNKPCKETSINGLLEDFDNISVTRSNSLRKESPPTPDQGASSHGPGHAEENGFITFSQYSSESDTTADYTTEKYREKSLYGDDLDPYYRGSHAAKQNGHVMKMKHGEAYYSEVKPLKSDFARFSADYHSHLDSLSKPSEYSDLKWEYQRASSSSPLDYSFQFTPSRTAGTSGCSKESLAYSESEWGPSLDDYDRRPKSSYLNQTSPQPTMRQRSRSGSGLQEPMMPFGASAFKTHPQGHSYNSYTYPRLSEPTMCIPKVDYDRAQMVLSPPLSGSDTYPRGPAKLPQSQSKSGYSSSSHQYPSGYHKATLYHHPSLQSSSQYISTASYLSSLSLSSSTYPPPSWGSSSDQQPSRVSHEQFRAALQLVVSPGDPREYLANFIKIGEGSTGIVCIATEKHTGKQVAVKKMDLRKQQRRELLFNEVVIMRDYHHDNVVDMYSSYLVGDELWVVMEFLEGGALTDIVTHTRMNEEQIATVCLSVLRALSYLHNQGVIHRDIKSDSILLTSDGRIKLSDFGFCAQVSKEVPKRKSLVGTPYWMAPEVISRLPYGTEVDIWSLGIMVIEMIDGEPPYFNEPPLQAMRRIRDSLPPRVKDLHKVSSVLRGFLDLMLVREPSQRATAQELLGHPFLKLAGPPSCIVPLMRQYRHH
Sequence of 320 wild-type protein kinases (Homo sapiens, UniProt P19784) (P19784 whole entry): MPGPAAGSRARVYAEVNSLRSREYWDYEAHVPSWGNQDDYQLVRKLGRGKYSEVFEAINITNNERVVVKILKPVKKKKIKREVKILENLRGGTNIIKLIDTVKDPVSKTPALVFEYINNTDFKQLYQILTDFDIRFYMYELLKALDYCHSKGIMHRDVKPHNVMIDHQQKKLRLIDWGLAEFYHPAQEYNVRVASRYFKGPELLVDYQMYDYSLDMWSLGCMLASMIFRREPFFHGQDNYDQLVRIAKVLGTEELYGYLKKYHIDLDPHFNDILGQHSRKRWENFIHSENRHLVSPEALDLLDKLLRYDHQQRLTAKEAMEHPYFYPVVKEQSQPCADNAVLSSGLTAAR

Compound	Residual activity ([1]; CAMKK2, 1.0E-06 M)	Residual activity ([1]; CAMKK2, 1.0E-07 M)	Residual activity ([2]; CAMK4, 1.0E-06 M)	Residual activity ([2]; CAMK4, 1.0E-07 M)	Residual activity ([3]; CLK4, 1.0E-06 M)	Residual activity ([3]; CLK4, 1.0E-07 M)	Residual activity ([4]; NEK2, 1.0E-06 M)	Residual activity ([4]; NEK2, 1.0E-07 M)	Residual activity ([5]; 1.0E-06 M)	Residual activity ([5]; 1.0E-07 M)	Residual activity ([6]; PAK7, 1.0E-06 M)	Residual activity ([6]; PAK7, 1.0E-07 M)	Residual activity ([7]; CK2-alpha2, 1.0E-06 M)	Residual activity ([7]; CK2-alpha2, 1.0E-07 M)	Residual activity, TLK2 ([8]; assay conc. 1.0E-06 M)	Residual activity, TLK2 ([8]; assay conc. 1.0E-07 M)	Residual activity ([9]; NEK3, 1.0E-06 M)	Residual activity ([9]; NEK3, 1.0E-07 M)	Residual activity ([10]; EPHA4, 1.0E-06 M)	Residual activity ([10]; EPHA4, 1.0E-07 M)	also measured
C#Cc1cc(Nc2ncnc3cc(I)ccc23)ccc1Cl [Compound 41]	71 % of control	96 % of control	91 % of control	84 % of control	112 % of control	111 % of control	82 % of control	96 % of control	126 % of control	105 % of control	81 % of control	108 % of control	115 % of control	115 % of control	109 % of control	117 % of control	103 % of control	110 % of control	83 % of control	96 % of control	Residual activity ([11]; PRK2, 1.0E-06 M): 88 % of control; Residual activity ([11]; PRK2, 1.0E-07 M): 85 % of control; Residual activity, RON ([12]; assay conc. 1.0E-06 M): 63 % of control; Residual activity, RON ([12]; assay conc. 1.0E-07 M): 77 % of control
C#Cc1cc(Nc2ncnc3cc(OC)c(OC)cc23)ccc1Cl [Compound 45]	74 % of control	79 % of control	89 % of control	84 % of control	69 % of control	100 % of control	86 % of control	92 % of control	128 % of control	99 % of control	91 % of control	99 % of control	111 % of control	118 % of control	103 % of control	111 % of control	113 % of control	101 % of control	61 % of control	99 % of control	Residual activity ([11]; PRK2, 1.0E-06 M): 95 % of control; Residual activity ([11]; PRK2, 1.0E-07 M): 92 % of control; Residual activity, RON ([12]; assay conc. 1.0E-06 M): 82 % of control; Residual activity, RON ([12]; assay conc. 1.0E-07 M): 90 % of control

Source: article PMC9329436, “Optimization of the 4-anilinoquin(az)oline scaffold as epidermal growth factor receptor (EGFR) inhibitors for chordoma utilizing a toxicology profiling assay platform” (Scientific Reports, 2022)
